Reference: patent US11370784B2 (MISSION THERAPEUTICS LIMITED, priority 2016, dated 2022)

These molecules were tested against USP30 (Homo sapiens (Human), UniProt Q70CQ3) (assay: USP30 biochemical IC50 assay). Settings: fluorescence polarisation, TAMRA labelled peptide linked to ubiquitin as substrate; enzyme and compound incubated 30 min at room temp; read-out: IC50 range.
Procedure: Reactions were performed in duplicate in black 384 well plates (small volume, Greiner 784076) in a final reaction volume of 21 μl. Either 1 μl of 50% DMSO or diluted compound was added to the plate. USP30 was diluted in reaction buffer (40 mM Tris, pH 7.5, 0.005% Tween 20, 0.5 mg/ml BSA, 5 mM beta-mercaptoethanol) to the equivalent of 0.05 μl/well and 10 μl of diluted USP30 was added to the compound. Enzyme and compound were incubated for 30 min at room temp. Reactions were initiated by the addition of 50 nM of TAMRA labelled peptide linked to ubiquitin via an iso-peptide bond as fluorescence polarisation substrate. Reactions were read immediately after addition of substrate and following a 2 h incubation at room temperature. Readings were performed on a Pherastar Plus (BMG Labtech). λ Excitation 540 nm; λ Emission 590 nm.

Chain of USP30 (Q70CQ3 57-517): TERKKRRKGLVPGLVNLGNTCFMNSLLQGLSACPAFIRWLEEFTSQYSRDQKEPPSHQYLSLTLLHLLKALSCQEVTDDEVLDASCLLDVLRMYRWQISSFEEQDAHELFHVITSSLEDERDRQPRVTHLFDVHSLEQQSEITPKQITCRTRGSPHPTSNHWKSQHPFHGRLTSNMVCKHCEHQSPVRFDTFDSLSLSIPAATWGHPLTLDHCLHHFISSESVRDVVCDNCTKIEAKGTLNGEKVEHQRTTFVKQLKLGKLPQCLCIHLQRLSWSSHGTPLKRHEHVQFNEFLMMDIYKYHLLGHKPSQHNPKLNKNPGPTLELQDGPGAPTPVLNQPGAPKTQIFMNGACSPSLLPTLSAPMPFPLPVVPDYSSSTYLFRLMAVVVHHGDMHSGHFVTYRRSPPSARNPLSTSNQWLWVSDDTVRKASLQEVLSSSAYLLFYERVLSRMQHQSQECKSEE

| SMILES | IC50 [nM] |
| --- | --- |
| N#CN1CCCC(F)(C(=O)Nc2ccc(-c3ccn[nH]3)cn2)C1 (racemic) [Example 49, N-(5-(1H-Pyrazol-5-yl)pyridin-2-yl)-1-cyano-3-fluoropiperidine-3-carboxamide] | 100 to 1000 |
| N#Cc1cc(-c2ccnc(NC(=O)C3CN(C#N)CCO3)c2)ccn1 (stereo not shown) [Example 18, 4-Cyano-N-(2′-cyano-[4,4′-bipyridin]-2-yl)morpholine-2-carboxamide] | 100 to 1000 |
| N#Cc1cccc(-c2cc(NC(=O)C3(F)CCCN(C#N)C3)no2)c1 (stereo not shown) [Example 64, 1-Cyano-N-(5-(3-cyanophenyl)isoxazol-3-yl)-3-fluoropiperidine-3-carboxamide] | 100 to 1000 |
| N#CN1CCOC(C(=O)Nc2nc3ccc(-c4cn[nH]c4)cc3s2)C1 (stereo not shown) [Example 7, N-(6-(1H-Pyrazol-4-yl)benzo[d]thiazol-2-yl)-4-cyanomorpholine-2-carboxamide] | 100 to 1000 |
| N#CN1CCO[C@@H](C(=O)Nc2cc(-c3cccc(Cl)c3)ncn2)C1 [Example 21, (R)-N-(6-(3-Chlorophenyl)-pyrimidin-4-yl)-4-cyanomorpholine-2-carboxamide] | 100 to 1000 |
| N#CN1CC(C(=O)Nc2nc3ccc(-c4cn[nH]c4)cc3s2)CC(F)(F)C1 (stereo not shown) [Example 59, N-(6-(1H-Pyrazol-4-yl)benzo[d]thiazol-2-yl)-1-cyano-5,5-difluoropiperidine-3-carboxamide] | 1000 to 10000 |
| CCCOc1cc(NC(=O)C2CN(C#N)CCO2)ccc1-c1ccn[nH]1 (stereo not shown) [Example 3, 4-Cyano-N-(3-propoxy-4-(1H-pyrazol-5-yl)phenyl)morpholine-2-carboxamide] | 100 to 1000 |
| N#Cc1cccc(-n2cnc(NC(=O)[C@@]3(F)CCCN(C#N)C3)c2)c1 [Example 79, (R)-1-Cyano-N-(1-(3-cyanophenyl)-1H-imidazol-4-yl)-3-fluoropiperidine-3-carboxamide] | 100 to 1000 |
| N#CN1CCC[C@](F)(C(=O)Nc2cnc(-c3cccc4cn[nH]c34)cn2)C1 [Example 86, (R)—N-(5-(1H-Indazol-7-yl)pyrazin-2-yl)-1-cyano-3-fluoropiperidine-3-carboxamide] | < 100 |
| N#CN1CCO[C@@H](C(=O)Nc2cc(-c3cccc(Cl)c3)cnn2)C1 [Example 62, (R)—N-(5-(3-Chlorophenyl)pyridazin-3-yl)-4-cyanomorpholine-2-carboxamide] | 100 to 1000 |
| Cn1cc(-c2ccc(NC(=O)C3CN(C#N)CCO3)cc2)cn1 (stereo not shown) [Example 5, 4-Cyano-N-(4-(1-methyl-1H-pyrazol-4-yl)phenyl)morpholine-2-carboxamide] | 1000 to 10000 |
| N#CN1CCCC(F)(C(=O)Nc2cc(-c3ccccc3)on2)C1 (stereo not shown) [Example 45, 1-Cyano-3-fluoro-N-(5-phenylisoxazol-3-yl)piperidine-3-carboxamide] | 100 to 1000 |
| N#Cc1ccnc(N2CCC(NC(=O)[C@H]3CN(C#N)CCO3)C2)c1 (stereo partly drawn) [Example 66, (2R)-4-Cyano-N-(1-(4-cyanopyridin-2-yl)pyrrolidin-3-yl)morpholine-2-carboxamide] | 1000 to 10000 |
| N#CN1CCO[C@@H](C(=O)Nc2cc(-c3cccc(C(N)=O)c3)ncn2)C1 [Example 27, (R)-N-(6-(3-Carbamoylphenyl)-pyrimidin-4-yl)-4-cyanomorpholine-2-carboxamide] | 1000 to 10000 |
| N#CN1CCCC(F)(C(=O)Nc2cn(-c3ccccc3)cn2)C1 (stereo not shown) [Example 43, 1-Cyano-3-fluoro-N-(1-phenyl-1H-imidazol-4-yl)piperidine-3-carboxamide] | 100 to 1000 |
| N#Cc1cccc(-c2cc(NC(=O)C3(F)CCCN(C#N)C3)on2)c1 (stereo not shown) [Example 73, 1-Cyano-N-(3-(3-cyanophenyl)isoxazol-5-yl)-3-fluoropiperidine-3-carboxamide] | 100 to 1000 |
| N#CN1CCOC(C(=O)Nc2cc(-c3cccc(C(F)(F)F)c3)no2)C1 (racemic) [Example 19, 4-Cyano-N-(3-(3-(trifluoro-methyl)phenyl)isoxazol-5-yl)morpholine-2-carboxamide] | 100 to 1000 |
| N#Cc1cccc(-c2cc(NC(=O)[C@H]3CN(C#N)CCO3)ncn2)c1 [Example 4, (R)-4-Cyano-N-(6-(3-cyanophenyl)pyrimidin-4-yl)morpholine-2-carboxamide] | < 100 |
| N#CN1CCO[C@@H](C(=O)Nc2ccc(-c3ccn[nH]3)cn2)C1 [Example 29, (R)-N-(5-(1H-Pyrazol-5-yl)pyridin-2-yl)-4-cyanomorpholine-2-carboxamide] | 1000 to 10000 |
| N#Cc1cccc(-c2ccnc(NC(=O)[C@H]3CN(C#N)CCO3)c2)c1 [Example 53, (R)-4-Cyano-N-(4-(3-cyanophenyl)pyridin-2-yl)morpholine-2-carboxamide] | < 100 |
| N#CN1CCCC(C(=O)Nc2cc(-c3ccccc3)[nH]n2)C1 (stereo not shown) [Example 38, 1-Cyano-N-(5-phenyl-1H-pyrazol-3-yl)piperidine-3-carboxamide] | 1000 to 10000 |
| N#CN1CCC[C@](F)(C(=O)Nc2ccc(-c3cccc4cn[nH]c34)cn2)C1 [Example 84, (R)—N-(5-(1H-Indazol-7-yl)pyridin-2-yl)-1-cyano-3-fluoropiperidine-3-carboxamide] | < 100 |
| N#CN1CCO[C@@H](C(=O)Nc2ncc(-c3ccccc3)s2)C1 [Example 20, (R)-4-Cyano-N-(5-phenylthiazol-2-yl)morpholine-2-carboxamide] | 100 to 1000 |
| N#Cc1cccc(-c2ccnc(NC(=O)[C@H]3CCCN(C#N)C3)c2)c1 [Example 57, (S)-1-Cyano-N-(4-(3-cyanophenyl)pyridin-2-yl)piperidine-3-carboxamide] | 1000 to 10000 |

Now from value to molecule:

| IC50 [nM] | SMILES |
| --- | --- |
| 1000 to 10000 | N#Cc1ccnc(-c2ccnc(NC(=O)C3CN(C#N)CCO3)c2)c1 (stereo not shown) [Example 14, 4-Cyano-N-(4-cyano-[2,4′-bipyridin]-2′-yl)morpholine-2-carboxamide] |
| 1000 to 10000 | N#CN1CCCC(C(=O)Nc2cc(-c3ccccc3)no2)C1 (stereo not shown) [Example 41, 1-Cyano-N-(3-phenylisoxazol-5-yl)piperidine-3-carboxamide] |
| 1000 to 10000 | N#CN1CCO[C@@H](C(=O)Nc2cnc(-c3ccccc3)s2)C1 [Example 28, (R)-4-Cyano-N-(2-phenylthiazol-5-yl)morpholine-2-carboxamide] |
| 1000 to 10000 | N#CN1CCO[C@@H](C(=O)Nc2cc(-c3cccc4[nH]ncc34)ncn2)C1 [Example 30, (R)-N-(6-(1H-indazol-4-yl)pyrimidin-4-yl)-4-cyanomorpholine-2-carboxamide] |
| < 100 | N#CN1CCC[C@](F)(C(=O)Nc2ccc(-c3cccc4[nH]ncc34)nn2)C1 [Example 91, (R)—N-(6-(1H-Indazol-4-yl)pyridazin-3-yl)-1-cyano-3-fluoropiperidine-3-carboxamide] |
| 1000 to 10000 | CN1CCN(C#N)C[C@@H]1C(=O)Nc1ncc(-c2ccccc2)s1 [Example 68] |
| 100 to 1000 | N#CN1CCO[C@@H](C(=O)Nc2cc(-c3cccc(C(F)(F)F)c3)no2)C1 [Example 51, (R)-4-Cyano-N-(3-(3-(trifluoromethyl)phenyl)isoxazol-5-yl)morpholine-2-carboxamide] |
| 100 to 1000 | N#Cc1cccc(-n2cc(NC(=O)[C@@]3(F)CCCN(C#N)C3)nn2)c1 [Example 82, (R)-1-Cyano-N-(1-(3-cyanophenyl)-1H-1,2,3-triazol-4-yl)-3-fluoropiperidine-3-carboxamide] |
| 1000 to 10000 | N#CN1CCOC(C(=O)Nc2cc(-c3ccccc3)[nH]n2)C1 (stereo not shown) [Example 11, 4-Cyano-N-(5-phenyl-1H-pyrazol-3-yl)morpholine-2-carboxamide] |
| 1000 to 10000 | N#Cc1cccc(-c2ccnc(NC(=O)[C@@H]3CN(C#N)CCO3)c2)c1 [Example 54, (S)-4-Cyano-N-(4-(3-cyanophenyl)pyridin-2-yl)morpholine-2-carboxamide] |
| 1000 to 10000 | N#CN1CCO[C@H](C(=O)Nc2ncc(-c3ccccc3)s2)C1 [Example 33, (S)-4-Cyano-N-(5-phenylthiazol-2-yl)morpholine-2-carboxamide] |
| < 100 | N#CN1CCC[C@](F)(C(=O)Nc2ccc(-c3cccc4[nH]ncc34)cn2)C1 [Example 85, (R)—N-(5-(1H-Indazol-4-yl)pyridin-2-yl)-1-cyano-3-fluoropiperidine-3-carboxamide] |
| 100 to 1000 | N#CN1CCC[C@](F)(C(=O)Nc2cn(-c3cccc(OC(F)(F)F)c3)cn2)C1 (stereo in doubt) [Example 81, 1-Cyano-3-fluoro-N-(1-(3-(trifluoromethoxy)phenyl)-1H-imidazol-4-yl)piperidine-3-carboxamide] |
| 100 to 1000 | N#CN1CCO[C@@H](C(=O)Nc2cc(-c3ccccc3)ccn2)C1 [Example 1, (R)-4-cyano-N-(4-phenylpyridin-2-yl)morpholine-2-carboxamide] |
| 1000 to 10000 | COc1cccc(-c2cc(NC(=O)[C@H]3CN(C#N)CCO3)ncn2)c1 [Example 22, (R)-4-Cyano-N-(6-(3-methoxy-phenyl)pyrimidin-4-yl)morpholine-2-carboxamide] |
| 1000 to 10000 | N#Cc1ccc(-c2cc(NC(=O)[C@H]3CN(C#N)CCO3)ncn2)cc1 [Example 25, (R)-4-Cyano-N-(6-(4-cyanophenyl)pyrimidin-4-yl)morpholine-2-carboxamide] |
| 1000 to 10000 | CC(C)Oc1cccc(-c2cc(NC(=O)[C@H]3CN(C#N)CCO3)ncn2)c1 [Example 23, (R)-4-Cyano-N-(6-(3-isopropoxy-phenyl)pyrimidin-4-yl)morpholine-2-carboxamide] |
| 100 to 1000 | N#CN1CCCC(F)(C(=O)Nc2ncc(-c3ccccc3)s2)C1 (stereo not shown) [Example 42, 1-Cyano-3-fluoro-N-(5-phenylthiazol-2-yl)piperidine-3-carboxamide] |
| 100 to 1000 | N#CN1CCO[C@@H](C(=O)Nc2cc(-c3ccc(Cl)cc3)ncn2)C1 [Example 26, (R)-N-(6-(4-Chlorophenyl)-pyrimidin-4-yl)-4-cyanomorpholine-2-carboxamide] |
